What was measured:
[1] = molecular target: T1, bile salt export pump (BSEP) (Rattus norvegicus, UniProt O70127); experiment: ATP-dependent [3H]taurocholate transport in rat hepatocyte canalicular membrane vesicles; type: biochemical; conditions: TC 5 M; 0.5% fetal calf serum; read-out: inhibition by 50% of ATP-dependent BSEP, [3H]taurocholate as substrate (IC50)
T1 construct: Membrane fractions enriched in the hepatocyte canalicular membrane domain were prepared and characterized from rat and human liver; from tissue; host or cells: liver of male Wistar rats: canalicular membrane vesicles (A8) or the liver in vivo (A13)
T1 sequence (O70127 1-1321): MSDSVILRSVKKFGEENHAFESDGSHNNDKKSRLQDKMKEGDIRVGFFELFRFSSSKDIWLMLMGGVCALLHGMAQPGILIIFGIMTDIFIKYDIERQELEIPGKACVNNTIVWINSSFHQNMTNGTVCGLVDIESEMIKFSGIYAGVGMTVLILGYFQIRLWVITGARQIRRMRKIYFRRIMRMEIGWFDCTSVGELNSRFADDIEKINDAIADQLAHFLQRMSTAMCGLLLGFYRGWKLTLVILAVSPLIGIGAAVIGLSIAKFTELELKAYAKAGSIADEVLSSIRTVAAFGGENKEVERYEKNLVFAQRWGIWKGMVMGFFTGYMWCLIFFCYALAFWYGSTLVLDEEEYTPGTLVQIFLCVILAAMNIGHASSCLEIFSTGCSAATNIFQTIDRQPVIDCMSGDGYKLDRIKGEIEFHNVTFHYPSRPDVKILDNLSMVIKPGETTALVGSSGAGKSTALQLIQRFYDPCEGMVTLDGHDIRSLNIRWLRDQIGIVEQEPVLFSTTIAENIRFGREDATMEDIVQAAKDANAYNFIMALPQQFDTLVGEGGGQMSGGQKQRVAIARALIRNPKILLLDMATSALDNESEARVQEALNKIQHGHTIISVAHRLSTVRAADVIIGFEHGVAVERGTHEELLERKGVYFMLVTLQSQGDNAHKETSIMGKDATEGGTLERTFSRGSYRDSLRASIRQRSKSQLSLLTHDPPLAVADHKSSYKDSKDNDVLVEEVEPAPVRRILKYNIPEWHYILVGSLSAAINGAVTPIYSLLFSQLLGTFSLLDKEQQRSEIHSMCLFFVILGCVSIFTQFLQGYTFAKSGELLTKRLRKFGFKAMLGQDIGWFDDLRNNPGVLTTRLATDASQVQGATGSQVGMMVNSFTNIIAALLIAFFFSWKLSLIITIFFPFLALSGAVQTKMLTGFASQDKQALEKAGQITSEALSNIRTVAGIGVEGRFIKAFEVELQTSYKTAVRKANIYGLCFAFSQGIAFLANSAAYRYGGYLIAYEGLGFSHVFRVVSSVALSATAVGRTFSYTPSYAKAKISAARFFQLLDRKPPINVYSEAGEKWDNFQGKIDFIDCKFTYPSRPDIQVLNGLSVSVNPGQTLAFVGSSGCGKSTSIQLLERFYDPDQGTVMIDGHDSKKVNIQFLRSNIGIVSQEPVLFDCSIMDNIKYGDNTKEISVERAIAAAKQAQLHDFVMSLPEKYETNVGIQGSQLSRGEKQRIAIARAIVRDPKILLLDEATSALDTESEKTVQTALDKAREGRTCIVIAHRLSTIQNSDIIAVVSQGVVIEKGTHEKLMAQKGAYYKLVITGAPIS

BSEP = molecular target: T2, BSEP (Rattus norvegicus, UniProt O70127); experiment: In vivo elimination of [3H]taurocholate into bile; conditions: GG918 4 mol kg1 body weight
T2 construct: Membrane fractions enriched in the hepatocyte canalicular membrane domain were prepared and characterized from rat and human liver; from tissue; host or cells: liver of male Wistar rats: canalicular membrane vesicles (A8) or the liver in vivo (A13)
T2 sequence (O70127 1-1321): T1 sequence (O70127 1-1321)

[2] = molecular target: T3, rat P-gp (145 kDa protein) (Rattus norvegicus, UniProt P43245); experiment: Photoaffinity labelling with [3H]azidopine, rat canalicular membranes; type: binding
T3 construct: Membrane fractions enriched in the hepatocyte canalicular membrane domain were prepared and characterized from rat and human liver; from tissue; host or cells: rat liver canalicular membrane vesicles

Mdr1 P-gp [3] = molecular target: T4, Mdr1 P-gp (Rattus norvegicus, UniProt P43245); experiment: ATP-dependent N-pentyl-[3H]quinidinium transport in rat hepatocyte canalicular membrane vesicles; type: biochemical
T4 construct: Membrane fractions enriched in the hepatocyte canalicular membrane domain were prepared and characterized from rat and human liver; from tissue; host or cells: rat liver canalicular membrane vesicles

MDR1 P-glycoprotein = experiment: in vitro; conditions: Wistar (rat), human
Mdr1b P-gp [4] = molecular target: T5, Mdr1b P-gp (Rattus norvegicus, UniProt P43245); experiment: In vivo elimination of [14C]doxorubicin into bile; parameters: from tissue; host or cells: liver of male Wistar rats: the liver in the living animal (A10, A11); conditions: GG918 14 mol kg1; 60 min
[5] = molecular target: T6, conjugate export pump MRP2 (Rattus norvegicus, UniProt Q63120); experiment: ATP-dependent [3H]LTC4 transport in rat hepatocyte canalicular membrane vesicles; type: biochemical; conditions: LTC4 50 nM; not significantly inhibited up to 20 µM
T6 construct: Membrane fractions enriched in the hepatocyte canalicular membrane domain were prepared and characterized from rat and human liver; from tissue; host or cells: liver of male Wistar rats: canalicular membrane vesicles (A7) or the liver in vivo (A12)

[6] = Bile flow in bile duct-cannulated rats; type: in vivo, rat; conditions: GG918 4 mol kg1 body weight i.v.
Mdr1 P-gp [7] = molecular target: T4, Mdr1 P-gp; experiment: ATP-dependent [14C]doxorubicin transport in rat hepatocyte canalicular membrane vesicles; type: biochemical; conditions: read-out: half-maximal inhibition of [14C]doxorubicin transport (IC50)
Mdr1b P-gp [8] = molecular target: T5, Mdr1b P-gp; experiment: ATP-dependent [3H]daunorubicin transport into rat hepatocyte canalicular membrane vesicles
[9] = molecular target: T7, recombinant rat Mdr1b P-gp (Rattus norvegicus, UniProt P43245); experiment: Photoaffinity labelling with [3H]azidopine, membranes of recombinant mdr1b-BV-infected Sf9 cells; type: binding; conditions: […] GG918
T7 construct: made in house; host or cells: Sf9 insect cells, recombinant baculovirus (mdr1b-BV)

[10] = molecular target: T6, conjugate export pump MRP2; experiment: In vivo elimination of N-[3H]acetyl-LTE4 into bile; conditions: GG918 4 mol kg1

T4 sequence (P43245 whole entry, the tested form may be a part): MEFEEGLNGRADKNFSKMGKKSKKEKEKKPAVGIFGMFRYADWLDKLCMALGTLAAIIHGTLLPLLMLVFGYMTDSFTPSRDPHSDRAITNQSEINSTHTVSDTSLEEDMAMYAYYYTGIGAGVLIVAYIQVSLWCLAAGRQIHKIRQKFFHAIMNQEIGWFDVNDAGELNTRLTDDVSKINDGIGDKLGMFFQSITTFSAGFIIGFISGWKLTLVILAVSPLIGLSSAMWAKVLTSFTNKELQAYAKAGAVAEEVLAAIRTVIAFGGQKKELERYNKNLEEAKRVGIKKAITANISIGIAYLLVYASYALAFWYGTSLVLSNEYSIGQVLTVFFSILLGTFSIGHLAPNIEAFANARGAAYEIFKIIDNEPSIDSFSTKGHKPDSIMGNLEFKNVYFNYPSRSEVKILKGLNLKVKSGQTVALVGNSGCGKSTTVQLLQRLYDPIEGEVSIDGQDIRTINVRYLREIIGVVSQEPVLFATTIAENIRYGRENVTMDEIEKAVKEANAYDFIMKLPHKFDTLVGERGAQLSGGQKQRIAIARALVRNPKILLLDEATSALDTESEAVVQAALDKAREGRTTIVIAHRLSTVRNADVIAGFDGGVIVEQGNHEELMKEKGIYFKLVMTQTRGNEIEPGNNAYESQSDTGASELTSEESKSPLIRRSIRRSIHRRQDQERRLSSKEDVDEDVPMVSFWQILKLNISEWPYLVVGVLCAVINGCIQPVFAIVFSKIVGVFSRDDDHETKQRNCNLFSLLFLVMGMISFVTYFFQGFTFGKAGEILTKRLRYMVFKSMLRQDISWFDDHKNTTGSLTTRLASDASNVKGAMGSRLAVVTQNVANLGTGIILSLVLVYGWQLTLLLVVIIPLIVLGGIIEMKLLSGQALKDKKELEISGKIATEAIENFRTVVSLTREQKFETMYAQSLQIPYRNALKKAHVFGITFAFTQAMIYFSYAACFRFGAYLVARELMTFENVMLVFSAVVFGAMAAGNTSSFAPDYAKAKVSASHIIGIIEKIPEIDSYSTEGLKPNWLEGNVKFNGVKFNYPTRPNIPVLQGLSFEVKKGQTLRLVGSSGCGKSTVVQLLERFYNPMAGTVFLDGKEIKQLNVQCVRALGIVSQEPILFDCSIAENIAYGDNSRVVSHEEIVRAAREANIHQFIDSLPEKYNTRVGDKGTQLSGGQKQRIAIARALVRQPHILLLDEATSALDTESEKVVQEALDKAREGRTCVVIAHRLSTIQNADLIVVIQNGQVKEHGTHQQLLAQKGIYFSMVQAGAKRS
T5 sequence (P43245 whole entry): as the sequence (P43245 whole entry, the tested form may be a part) above
T3 sequence (P43245 whole entry, the tested form may be a part): as above
T7 sequence (P43245 whole entry): as the sequence (P43245 whole entry, the tested form may be a part) above

| SMILES | IC50 [1] [µM] | effect on biliary excretion of [3H]taurocholate (BSEP) | reduction of [3H]azidopine labelling of rat P-gp ([2]; 40 µM GG918) [%] | reduction of [3H]azidopine labelling of rat P-gp ([2]; 10 M GG918) [%] | concentration for potent competition with [3H]azidopine photoaffinity labelling versus concentration for potent inhibition of substrate transport by Mdr1b P-gp ([2]; fold higher) | suppression of ATP-dependent transport of N-pentyl-[3H]quinidinium (Mdr1 P-gp [3]; 10 nM GG918) [%] | suppression of ATP-dependent transport of N-pentyl-[3H]quinidinium (Mdr1 P-gp [3]; 100 nM GG918) [%] | IC50 (Mdr1 P-gp [3]; rat hepatocyte canalicular membranes, substrate 1 M, read-out: half-maximal inhibition of N-pentyl-[3H]quinidinium transport (IC50)) [nM] | IC50 (MDR1 P-glycoprotein) [nM] | [14C]doxorubicin elimination suppressed to (% of untreated) (Mdr1b P-gp [4]) [%] | IC50 [5] [µM] | bile flow [6] | IC50 (Mdr1 P-gp [7]) [nM] | Ki (Mdr1b P-gp [8]) [nM] | IC50 (Mdr1b P-gp [8]; IC50 Dau (Figure 7), DAU 20 M, Figure 7 inset) [nM] | IC50 (Mdr1b P-gp [8]; half-maximal inhibition of [3H]daunorubicin transport, [3H]daunorubicin 20 M, 0.5% fetal calf serum) [nM] | manner of inhibition of [3H]daunorubicin transport (Mdr1b P-gp [8]; rat canalicular inside-out vesicles, 30 nM GG918) | reduction of [3H]azidopine incorporation into the Mdr1b protein [9] [%] | inhibition of N-[3H]acetyl-LTE4 secretion [10] | Vmax of ATP-dependent daunorubicin transport (Mdr1b P-gp [8]; Lineweaver-Burk plots, rat canalicular vesicles) [pmol mg1 min1] |
| --- | --- | --- | --- | --- | --- | --- | --- | --- | --- | --- | --- | --- | --- | --- | --- | --- | --- | --- | --- | --- |
| COc1cc2c(cc1OC)CN(CCc1ccc(NC(=O)c3cccc4c(=O)c5cccc(OC)c5[nH]c34)cc1)CC2 [GG918, N-{4-[2-(1,2,3,4-tetrahydro-6,7-dimethoxy-2-isoquinolinyl)-ethyl]-phenyl}-9,10-dihydro-5-methoxy-9-oxo-4-acridine carboxamide] | ~3 | did not affect | 78 | 38 | at least 100 fold | 42 | 98 | 8 | 8 to 80 | 27 | > 20 | not affected | 80 | 35 | 20 | ~20 | competitive | 80 | No significant inhibition | – |
| COc1cccc2c1C(=O)c1c(O)c3c(c(O)c1C2=O)C[C@@](O)(C(C)=O)C[C@@H]3O[C@H]1C[C@H](N)[C@H](O)[C@H](C)O1 [daunorubicin] | – | – | – | – | – | – | – | – | – | – | – | – | – | – | – | – | – | – | – | 721 |

From PMC2362229 (British Journal of Cancer, 1999)
